Data on 6 molecules can be found in PMC7350407, “Kinetic Modifications of C4 PEPC Are Qualitatively Convergent, but Larger in Panicum Than in Flaveria” (Frontiers in Plant Science, 2020).

Read-outs that look alike come from different tables or passages of the source.

In data set [1] the target is T1, Panicum pygmaeum (C3) PEPC.
T1 construct: gene ppc-1P3; full-length, 969 codons, codon-optimised synthetic gene, N-terminal His6 tag kept, E. coli BL21(DE3)
Kind of data set: malate dehydrogenase-coupled NADH assay, […] nm. In kind it is biochemical. The following applies: pH 8.0, 25 °C, 10 mM MgCl2, 5 mM KHCO3, PEP varied.

Data set [2] concerns the target T2, Flaveria pringlei (C3) PEPC (Flaveria pringlei, UniProt Q01647).
T2 construct: gene PPCA1; full-length, 967 codons, N-terminal His6 tag kept (pET-1B His6 TEV LIC), E. coli BL21(DE3)
Kind of data set: malate dehydrogenase-coupled NADH assay, […] nm. In kind it is biochemical.

Data set [3] concerns the target T3, Flaveria trinervia (C4) PEPC (Flaveria trinervia, UniProt P30694).
T3 construct: gene PPCA; full-length, 967 codons, N-terminal His6 tag kept (pET-1B His6 TEV LIC), E. coli BL21(DE3)
Kind of data set: malate dehydrogenase-coupled NADH assay, […] nm. In kind it is biochemical.

In data set [4] the target is T4, Panicum queenslandicum (C4) PEPC.
T4 construct: gene ppc-1P3; full-length, 962 codons, N-terminal His6 tag kept, E. coli BL21(DE3), cloned from leaf cDNA
Kind of data set: malate dehydrogenase-coupled NADH assay, […] nm. In kind it is biochemical. The following applies: pH 8.0, 25 °C, 10 mM MgCl2, 5 mM KHCO3, PEP varied.

For data set [5] the target is unchanged. Kind of data set: malate dehydrogenase-coupled NADH assay, secondary plot of kcat/Km(HCO3-) against PEP. The data set is classed as biochemical. The following applies: substrate constant at limiting bicarbonate, not inhibition; pH 8.0, 25 °C, 10 mM MgCl2. From the text: malate dehydrogenase-coupled NADH assay, secondary plot of kcat/Km(HCO3-) against PEP on Panicum queenslandicum (C4) PEPC

For data set [6], the system named is T1, Panicum pygmaeum (C3) PEPC. Kind of data set: malate dehydrogenase-coupled NADH assay, […] nm, secondary plot. The data set is classed as biochemical. The following applies: co-substrate bicarbonate; pH 8.0, 25 °C, 10 mM MgCl2; read-out: KmPEP.
In data set [7] the target is T2, Flaveria pringlei (C3) PEPC. Kind of data set: malate dehydrogenase-coupled NADH assay, secondary plot of kcat/Km(HCO3-) against PEP. The data set is classed as biochemical. The following applies: substrate constant at limiting bicarbonate, not inhibition; pH 8.0, 25 °C, 10 mM MgCl2. From the text: malate dehydrogenase-coupled NADH assay, secondary plot of kcat/Km(HCO3-) against PEP on Flaveria pringlei (C3) PEPC

Data set [8] has as its system T4, Panicum queenslandicum (C4) PEPC. Kind of data set: malate dehydrogenase-coupled NADH assay, […] nm, secondary plot. In kind it is biochemical. As to conditions: co-substrate bicarbonate; pH 8.0, 25 °C, 10 mM MgCl2; read-out: KmPEP.
In data set [9] the target is T3, Flaveria trinervia (C4) PEPC. Kind of data set: malate dehydrogenase-coupled NADH assay, secondary plot of kcat/Km(HCO3-) against PEP. In kind it is biochemical. The following applies: substrate constant at limiting bicarbonate, not inhibition; pH 8.0, 25 °C, 10 mM MgCl2. From the text: malate dehydrogenase-coupled NADH assay, secondary plot of kcat/Km(HCO3-) against PEP on Flaveria trinervia (C4) PEPC

For data set [10], the target named is T1, Panicum pygmaeum (C3) PEPC. Described as above. The following applies: substrate constant at limiting bicarbonate, not inhibition; pH 8.0, 25 °C, 10 mM MgCl2. In kind it is biochemical. From the text:
malate dehydrogenase-coupled NADH assay, secondary plot of kcat/Km(HCO3-) against PEP on Panicum pygmaeum (C3) PEPC

Data set [11] relates to T5, Panicum pygmaeum (C3) PEPC.
T5 construct: gene ppc-1P3
The following applies: read-out: KmHCO3-; co-substrate PEP; pH 8.0, 25 °C, 10 mM MgCl2.

Data set [12] has as its system T6, Panicum queenslandicum (C4) PEPC.
T6 construct: gene ppc-1P3
The following applies: read-out: KmHCO3-; co-substrate PEP; pH 8.0, 25 °C, 10 mM MgCl2.

Substrate in data set [13]: O=C(O)O
Kind of data set: purified protein. The following applies: co-substrate PEP, pH 8.0, 25 °C, 10 mM MgCl2.

Substrate in data set [14]: C=C(OP(=O)(O)O)C(=O)O
Kind of data set: purified protein. The following applies: co-substrate bicarbonate, pH 8.0, 25 °C, 10 mM MgCl2. In kind it is biochemical, Flaveria trinervia.

Substrate in data set [15]: C=C(OP(=O)(O)O)C(=O)O
Kind of data set: purified protein. The following applies: co-substrate bicarbonate, pH 8.0, 25 °C, 10 mM MgCl2. In kind it is biochemical, Flaveria pringlei.

Setting [16] is: mixed inhibitor, competitive constant (limiting PEP), read-out: KicMalate.
Where [17] appears, read: competitive, read-out: KicAspartate.

For `O=C(O)C[C@H](O)C(=O)O` [malate], the Ki in data set [1] (setting [16]) amounted to 0.52 ± 0.22 mM; in data set [2] (read-out: KicMalate) it was 2.14 ± 0.62 mM; in data set [3] (read-out: KicMalate) it was 11 ± 1.55 mM; in [4] (setting [16]), 7.51 ± 1.17 mM.

As to `N[C@@H](CC(=O)O)C(=O)O` [aspartate], the Ki came to 2.27 ± 0.02 mM in data set [1] (setting [17]), 4.13 ± 0.6 mM in data set [2] (read-out: KicAspartate), 40 ± 6.49 mM in [3] (read-out: KicAspartate) and 49.4 ± 7.86 mM in data set [4] (setting [17]).

Turning to `C=C(OP(=O)(O)O)C(=O)O` [PEP], the “KiPEP” value in data set [5] came to 4.39 ± 1.10 mM; in data set [7], 0.02 ± 0.01 mM; in data set [9], 0.40 ± 0.13 mM; in data set [10], 0.05 ± 0.01 mM. Further, the Km in data set [6] was determined as 170 ± 50 µM; in data set [8], 4170 ± 300 µM.

Turning to `O=C(O)O` [bicarbonate], the Km in data set [11] was 120 ± 20 µM; in [12] it was 40 ± 20 µM.

B1: Flaveria trinervia (C4) PEPC (Flaveria trinervia) (protein)
chain: MANRNVEKLASIDAQLRLLVPGKVSEDDKLVEYDALLLDKFLDILQDLHGEDLKEAVQQCYELSAEYEGKHDPKKLEELGSLLTSLDTGDSIVIAKAFSHMLNLANLAEELQIAYRRRIKLKSGDFADEANATTESDIEETFKRLVHKLNKSPEEVFDALKNQTVELVLTAHPTQSVRRSLLQKHGRIRNCLAQLYAKDITPDDKQELDEALHREIQAAFRTDEIRRTPPTPQDEMRAGMSYFHETIWKGVPKFLRRVDTALKNIGINERFPYNAPLIQFSSWMGGDRDGNPRVTPEVTRDVCLLARMMTSNMYFSQIEDLMIEMSMWRCNSELRVRAEELYRTARKDVKHYIEFWKRIPPNQPYRVILGDVRDKLYNTRERSRHLLVDGKSDIPDEAVYTNVEQLLEPLELCYRSLCDCGDHVIADGSLLDFLRQVSTFGLSLVKLDIRQESDRHTEVLDAITQHLGIGSYREWSEEKRQEWLLAELSGKRPLIGPDLPKTEEVKDCLDTFKVLAELPSDCFGAYIISMATSTSDVLAVELLQREYHIKHPLRVVPLFEKLADLEAAPAAMTRLFSMDWYRNRIDGKQEVMIGYSDSGKDAGRFSAAWQLYKTQEQIVKIAKEFGVKLVIFHGRGGTVGRGGGPTHLALLSQPPDTINGSLRVTVQGEVIEQSFGEEHLCFRTLQRFCAATLEHGMNPPISPRPEWRELMDQMAVVATEEYRSVVFKEPRFVEYFRLATPELEFGRMNIGSRPSKRKPSGGIESLRAIPWIFSWTQTRFHLPVWLGFGAAFKHAIQKDSKNLQMLQEMYKTWPFFRVTIDLVEMVFAKGNPGIAALNDKLLVSEDLRPFGESLRANYEETKNYLLKIAGHKDLLEGDPYLKQGIRLRDPYITTLNVCQAYTLKRIRDPNYHVTLRPHISKEYAAEPSKPADELIHLNPTSEYAPGLEDTLILTMKGIAAGMQNTG
notes: full-length, 967 codons, N-terminal His6 tag kept (pET-1B His6 TEV LIC), E. coli BL21(DE3)
What is called kcat is the number of substrate molecules converted per active site and unit of time at saturation. As a reminder, the kcat/Km is the second-order rate constant that governs catalysis at low substrate concentration. With B1, in the data set “purified protein [13]”, the Km was found to be 70 ± 10 µM, the kcat worked out at 47.99 ± 1.21 s⁻¹ and the kcat/Km is 690000 M⁻¹ s⁻¹. Also, in “purified protein [14]”, the Km was 600 ± 50 µM, the kcat turned out to be 47.99 ± 1.21 s⁻¹ and the kcat/Km was found to be 80000 ± 5400 M⁻¹ s⁻¹.

B2: Flaveria pringlei (C3) PEPC (Flaveria pringlei) (protein)
chain: MANRNLEKLASIDAQLRLLVPGKVSEDDKLIEYDALLLDKFLDILQDLHGEDLKEAVQECYELSAEYEGKHDPKKLEELGSVLTSLDPGDSIVIAKAFSHMLNLANLAEEVQIAYRRRIKLKRGDFADEANATTESDIEETFKKLVLKLNKSPEEVFDALKNQTVDLVLTAHPTQSVRRSLLQKHGRIRNCLAQLYAKDITPDDKQELDEALHREIQAAFRTDEIRRTPPTPQDEMRAGMSYFHETIWKGVPKFLRRVDTALKNIGINERVPYNAPLIQFSSWMGGDRDGKHPRVTPEVTRDVCLLARMMASNMYFSQIEDLMFEMSMWRCNSELRVRAEELYRTARRDVKHYIEFWKQVPPTEPYRVILGDVRDKLYNTRERSRHLLAHGISDIPEEAVYTNVEQFLEPLELCYRSLCDCGDRVIADGSLLDFLRQVSTFGLSLVKLDIRQESDRHTDVLDAITQHLEIGSYREWSEEKRQEWLLAELSGKRPLFGSDLPKTEEVKDVLDTFNVLAELPSDCFGAYIISMATSPSDVLAVELLQRECHVKHPLRVVPLFEKLADLEAAPAAMARLFSIDWYRNRIDGKQEVMIGYSDSGKDAGRFSAAWQLYKAQEEIIKVAKEFGVKLVIFHGRGGTVGRGGGPTHLAILSQPPDTIHGSLRVTVQGEVIEQSFGEEHLCFRTLQRFCAATLEHGMNPPISPRPEWRELMDQMAVVATEEYRSIVFKEPRFVEYFRLATPELEYGRMNIGSRPSKRKPSGGIESLRAIPWIFAWTQTRFHLPVWLGFGAAFKHAIKKDSKNLQMLQEMYKTWPFFRVTIDLVEMVFAKGDPGIAALNDKLLVSEDLWPFGESLRANYEETKDYLLKIAGHRDLLEGDPYLKQRIRLRDSYITTLNVCQAYTLKRIRDPNYHVTLRPHISKEYAAEPSKPADELIHLNPTSEYAPGLEDTLILTMKGIAAGMQNTG
notes: as for B1
For B2, in “purified protein [13]”, the Km was 100 ± 10 µM, the kcat is 52.65 ± 1.37 s⁻¹ and the kcat/Km turned out to be 440000 M⁻¹ s⁻¹. Also, in the data set “purified protein [15]”, the Km is 60 ± 10 µM, the kcat was 52.65 ± 1.37 s⁻¹ and the kcat/Km turned out to be 940000 ± 84900 M⁻¹ s⁻¹.
